Experimental data from US10632081B2, “Intralymphatic delivery of hyaluronan nanoparticle for cancer metastasis” (priority 2015, dated 2020).

Columns and labels:
SAS-LN = assay: Anti-lymphatic metastasis in spontaneous lymphatic metastasis model of SAS-LN; assay type: in vivo, BALB/c nude mice; conditions: iv, 3 mg Pt/kg, qw for 5 weeks, cervical lymph nodes by IVIS
Procedure: SAS-LN cells transfected with luciferase were suspended in PBS and were orthotropic implanted (2×10^5 cells per mouse) into the tongue of female BALB/c nude mice (6 to 8 weeks old). SAS-LN tumors were allowed to grow for 1 week. Cisplatin was administered by intravenous injection at dose of 3 mg Pt/kg, and CPHC008 was administered by subcutaneous injection into the buccal site at dose of 3 mg Pt/kg (n=10/group). All test articles were administrated once a week for 5 weeks. After sacrifice, cervical lymph nodes were collected to evaluate metastasis by bioluminescence imagine using IVIS.

B16-F10-luc2 = assay: Survival rate and anti-lymphatic metastasis in spontaneous lymphatic metastasis model of B16-F10-luc2; assay type: in vivo, C57BL/6 mice; conditions: for volume of popliteal lymph node (mean±SEM): 3 mg Pt/kg twice a week for 2 weeks
Text: Prior inoculation of the cells, B16-F10-luc2 cells were harvested during the exponential growth period and washed twice with sterile PBS, and then suspended in PBS with 50% Matrigel (BD Biosciences). Respective 3×10^5 B16-F10-luc2 cells were implanted subcutaneously into the right hind foot pad of female C57BL/6 mice (6 to 8 weeks old). B16-F10-luc2 tumors were allowed to grow for 5 weeks, and the tumor cells spontaneously metastasized to regional popliteal lymph node. Lymphatic metastasis was confirmed by bioluminescence imagine using IVIS spectrum. Oxaliplatin was administered by intravenous or subcutaneous injection at the dose of 3 mg Pt/kg, and PtHC604 was administered by subcutaneous injection into the footpad at the same dose of 3 mg Pt/kg. All test articles were administrated twice a week for 2 weeks (n=6-8/group in one independent experiment). Tumor size was measured by calipers and converted into tumor volume using the following formula: V=LS^2/2 (where L is the longest diameter and S is the shortest diameter). Death was defined when mice dead or tumor volumes were >3000 mm^3. At the end of study, mice were sacrificed and the popliteal lymph node was collected for measurement. The volume of lymph node was measured by the same formula above: V=LS^2/2.

[1] = Local toxicity assessment (Primary Dermal Irritation Index); assay type: in vivo, BALB/c mice; conditions: sc foot pad
Procedure: Mice were weighted and grouped into (1) vehicle; (2) 0.3 mg Pt/kg oxaliplatin; (3) 1 mg Pt/kg oxaliplatin; (4) 3 mg Pt/kg Oxaliplatin; (5) 0.3 mg Pt/kg PtHC604; (6) 1 mg Pt/kg PtHC604; (7) 3 mg Pt/kg PtHC604, n=6/group. Each animal was treated once weekly for 4 weeks. The skin toxicities in the injection site were measured by erythema and oedema grading (Table 1). The skin toxicities potential was evaluated using Primary Dermal Irritation Index (PDII) by combining erythema and oedema grading, and classified into non-irritant, negligible-irritant, mild irritant, moderate irritant, and severe irritant (Table 2).

B16-F10-luc2 cells = assay: In vitro cytotoxicity assay (MTT); assay type: cell-based, Murine; conditions: 48 h treatment
Procedure: B16-F10-luc2 cells were cultured in RPMI1640 medium supplemented with 10% heat-inactivated fetal bovine serum and maintained in a humidified 37° C., 5% CO2 incubator. B16-F10-luc2 cells were seeded on 96-well plate for 2×10^3 cells per well and incubated overnight at 37° C. Cells were treated with phosphate-buffered saline (PBS), oxaliplatin, or PtHC604 for 48 hours at 37° C. Cell viability was determined by MTT assay.

[2] = Residual drug in injection site evaluation; conditions: 1 mg Pt/kg
Procedure: After 4, 24, 48, and 96 hours post-injection, animals were euthanized by CO2. Each foot was harvested and stored at −80° C. until analysis. Platinum concentration in each foot was analyzed by ICP-MS.

[3] = Lymphatic delivery of PtHC604 by subcutaneous injection in normal rats; assay type: in vivo, SD rats; conditions: sc mammary fat pad, 1 mg Pt/kg
Procedure: To evaluate the lymphatic delivery, SD rats were placed under isoflurane anesthesia and injected subcutaneously into the right mammary fat pad with PtHC604, PtHC16001 or oxaliplatin (1 mg Pt/kg). […] Right axillary lymph nodes, sciatic nerves and plasma were harvested and stored at −80° C. until analysis. Platinum concentrations in lymph nodes and sciatic nerves were analyzed by ICP-MS. Platinum concentration in plasma was analyzed by ICP-OES.

[4] = Lymphatic delivery of PtHC604 by different injection routes; assay type: in vivo, Sprague Dawley (SD) rats; conditions: iv, 9 mg Pt/kg, right axillary lymph node Pt
Procedure: […] […] […] Right axillary lymph nodes were harvested and stored at −80° C. until analysis. Platinum concentration in lymph nodes was analyzed by ICP-MS (THERMO XSERIES II).

[5] = 0.3 mg Pt/kg once weekly for 4 weeks
[6] = 1 mg Pt/kg once weekly for 4 weeks
[7] = 3 mg Pt/kg once weekly for 4 weeks

SMILES: N.N.[Cl][Pt][Cl] [Cisplatin]
- Lymphatic metastasis (metastatic ratio) (SAS-LN): 78%
- Lymphatic metastasis (metastatic ratio) (SAS-LN; listed as cisplatin): 78%

SMILES: O=C1[O][Pt]2([NH][C@@H]3CCCC[C@H]3[NH]2)[O]C1=O [Oxaliplatin, oxaliplatin]
- volume of popliteal lymph node (mean±SEM) (B16-F10-luc2; intravenous injection): 72.7±46.2 mm^3
- Median survival days (B16-F10-luc2; iv, 3 mg Pt/kg, biw, mice bearing metastatic melanoma): 7 days
- volume of popliteal lymph node (mean±SEM) (B16-F10-luc2; subcutaneous injection): 129.2±103.9 mm^3
- Classification of dermal irritation [1, 5]: Non-irritation
- Dermal irritation index [1, 5]: 0
- Classification of dermal irritation [1, 6]: Mild irritation
- Dermal irritation index [1, 6]: 0.5
- Classification of dermal irritation [1, 7]: Severe irritation
- Dermal irritation index [1, 7]: 4.8
- Classification of dermal irritation ([1]; 3 mg Pt/kg once weekly for 4 weeks, listed as oxaliplatin): Severe skin toxicities
- IC50 (B16-F10-luc2 cells): 650 nM
- residual Pt detected in the foot ([2]; 24 hour after sc footpad injection): 29%
- Pt exposure in the foot ([2]; sc footpad injection, up to 96 hours): 4089 µg·h/mL
- AUC (96 h) (h * ug/g) Lymph node ([3]; axillary lymph node Pt): 66.0 µg·h/g
- AUC (96 h) (h * ug/g) Plasma ([3]; plasma Pt): 6.7 µg·h/g
- AUC (96 h) (h * ug/g) Sciatic nerve ([3]; sciatic nerve Pt): 12.0 µg·h/g
- Lymphatic AUC0-96 h [4]: 468.7 µg·h/g
